In patent publication US9566312B2, “Cyclic peptides and use as medicines” (priority 2012, dated 2017):
Starred links: 1 amine or outer side, 2 acyl side, 3 side chain; linkers in the order of their positions; H or OH if unused. Non-standard residues stand in square brackets, D forms with d. Residues, ends and D or L forms follow the SMILES beside them. X22 = C[C@H](CN1CCN(C2CCC2)CC1)[C@@H](C(=O)[*:2])N(C)[*:1]; X79 = COCCN1CCN(CC[C@@H](C)[C@@H](C(=O)[*:2])N(C)[*:1])CC1; X21 = CCN1CCN(C[C@@H](C)[C@@H](C(=O)[*:2])N(C)[*:1])CC1; X11 = CCN1CCN(C[C@H](C)[C@@H](C(=O)[*:2])N(C)[*:1])CC1; X23 = COC1CN(C[C@@H](C)[C@@H](C(=O)[*:2])N(C)[*:1])C1; MeBmt = C/C=C/C[C@@H](C)[C@@H](O)[C@H](NC)C(=O)O; NMeL = CN[C@@H](CC(C)C)C(=O)O; NMeV = CN[C@H](C(=O)O)C(C)C; dNMeA = CN[C@H](C)C(=O)O; Abu = CC[C@H](N)C(=O)O

Key:
CypF = CypF (Homo sapiens (Human), UniProt P30405); experiment: Inhibitor binding to cyclophilin proteins by SPR, CypF; settings: 1:1 binding model
Chain of CypF (P30405 30-207): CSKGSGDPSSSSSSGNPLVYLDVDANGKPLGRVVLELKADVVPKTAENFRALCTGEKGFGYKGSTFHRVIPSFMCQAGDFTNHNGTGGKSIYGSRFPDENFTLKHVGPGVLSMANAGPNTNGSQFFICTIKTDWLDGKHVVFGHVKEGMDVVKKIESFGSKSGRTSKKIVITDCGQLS
Procedure, shortened: (§1)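 SPR, single-cycle kinetics. Avi-tagged, mono-biotinylated protein on Biotin CAPture chip; running buffer 10 mM HEPES pH 7.4, 150 mM NaCl, 0.05% P20, 3% DMSO. 1 min contacts at 50 μL/min, 10 min dissociation. kon/koff/KD from 1:1 fit.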

[1] = system: peripheral blood mononuclear cells (PBMC); experiment: Anti-proliferative or immunosuppressive activity, BrdU incorporation in PHA-stimulated PBMC; format: cell-based; settings: PHA 3 μg/ml, 60 hour compound treatment; read-out: EMV PBMC IC50
Procedure, shortened: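 BrdU ELISA read-out of DNA synthesis in freshly isolated PBMCs (two donors, 30,000 cells/well, X-VIVO 15). T-cell proliferation triggered with phytohemagglutinin at 3 μg/ml.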

cyclophilin B (CypB) = cyclophilin B (CypB) (Homo sapiens (Human), UniProt P23284); experiment: Inhibitor binding to cyclophilin proteins by SPR, CypB; design: unit not given here; settings: 1:1 binding model
Chain of cyclophilin B (CypB) (P23284 34-216): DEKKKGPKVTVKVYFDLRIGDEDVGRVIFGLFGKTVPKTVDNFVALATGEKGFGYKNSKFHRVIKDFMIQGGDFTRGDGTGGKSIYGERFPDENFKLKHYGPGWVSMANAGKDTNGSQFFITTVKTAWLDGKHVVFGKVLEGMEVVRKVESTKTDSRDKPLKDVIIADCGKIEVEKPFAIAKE
Procedure, shortened: as §1

[2] = system: genotype 1b subgenomic HCV replicon in Huh7.5 cells; format: cell-based, hepatitis C virus; settings: genotype 1b replicon, 72 h incubation; read-out: RPLN-1b IC50
Procedure, shortened: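 Replicon inhibition read as renilla luciferase signal versus DMSO controls after 72 h incubation, in Huh7.5 cells harbouring a genotype 1b subgenomic replicon; medium phenol red-free DMEM lacking G418. CC50 determined in parallel via Cell Titer-Glo.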

CYP3A4 = CYP3A4 (Homo sapiens (Human), UniProt P08684); experiment: Time-dependent inhibition of CYP3A4;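 further: Two-step in vitro assay, kobs derived from residual CYP3A4 activity versus preincubation time per concentration, then kinact and KI by nonlinear fit of kobs against concentration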
Chain of CYP3A4 (P08684 whole entry): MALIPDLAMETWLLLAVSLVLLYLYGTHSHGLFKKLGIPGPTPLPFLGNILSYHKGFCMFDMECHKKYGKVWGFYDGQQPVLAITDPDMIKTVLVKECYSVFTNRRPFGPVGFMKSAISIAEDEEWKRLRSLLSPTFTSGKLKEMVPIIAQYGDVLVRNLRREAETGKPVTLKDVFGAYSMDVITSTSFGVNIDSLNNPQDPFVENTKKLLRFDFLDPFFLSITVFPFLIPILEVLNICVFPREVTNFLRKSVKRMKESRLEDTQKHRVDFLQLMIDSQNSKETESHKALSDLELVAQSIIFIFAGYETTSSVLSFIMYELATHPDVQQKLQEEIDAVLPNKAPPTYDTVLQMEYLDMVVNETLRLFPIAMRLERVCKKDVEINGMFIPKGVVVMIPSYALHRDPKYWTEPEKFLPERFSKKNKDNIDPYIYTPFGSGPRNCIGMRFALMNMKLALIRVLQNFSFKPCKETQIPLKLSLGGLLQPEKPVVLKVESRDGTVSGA

cyclophilin A (CypA) = cyclophilin A (CypA) (Homo sapiens (Human), UniProt P62937); experiment: Inhibitor binding to cyclophilin proteins by SPR, CypA; design: unit not given here; settings: 1:1 binding model;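 further: Single-cycle kinetics on a Biacore T200, compound injected at several concentrations for 1 min each at 50 µL/min, then 10 min dissociation, in HEPES pH 7.4 buffer with 3% DMSO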
Chain of cyclophilin A (CypA) (P62937 whole entry): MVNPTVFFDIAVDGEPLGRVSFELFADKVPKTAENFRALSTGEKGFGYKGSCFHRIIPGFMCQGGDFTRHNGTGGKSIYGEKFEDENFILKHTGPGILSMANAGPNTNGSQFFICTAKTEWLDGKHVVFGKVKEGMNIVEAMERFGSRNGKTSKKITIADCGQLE

[3] = biological target: organic anion transporting polypeptide 1B1 (OATP1B1) (Homo sapiens (Human), UniProt Q9Y6L6); experiment: OATP assay in CHO-OATP1B1 cells;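 further: inhibition of probe substrate uptake into the cells, ten minutes exposure, accumulated substrate read by fluorescence once cells were lysed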
Chain of organic anion transporting polypeptide 1B1 (OATP1B1) (Q9Y6L6 whole entry): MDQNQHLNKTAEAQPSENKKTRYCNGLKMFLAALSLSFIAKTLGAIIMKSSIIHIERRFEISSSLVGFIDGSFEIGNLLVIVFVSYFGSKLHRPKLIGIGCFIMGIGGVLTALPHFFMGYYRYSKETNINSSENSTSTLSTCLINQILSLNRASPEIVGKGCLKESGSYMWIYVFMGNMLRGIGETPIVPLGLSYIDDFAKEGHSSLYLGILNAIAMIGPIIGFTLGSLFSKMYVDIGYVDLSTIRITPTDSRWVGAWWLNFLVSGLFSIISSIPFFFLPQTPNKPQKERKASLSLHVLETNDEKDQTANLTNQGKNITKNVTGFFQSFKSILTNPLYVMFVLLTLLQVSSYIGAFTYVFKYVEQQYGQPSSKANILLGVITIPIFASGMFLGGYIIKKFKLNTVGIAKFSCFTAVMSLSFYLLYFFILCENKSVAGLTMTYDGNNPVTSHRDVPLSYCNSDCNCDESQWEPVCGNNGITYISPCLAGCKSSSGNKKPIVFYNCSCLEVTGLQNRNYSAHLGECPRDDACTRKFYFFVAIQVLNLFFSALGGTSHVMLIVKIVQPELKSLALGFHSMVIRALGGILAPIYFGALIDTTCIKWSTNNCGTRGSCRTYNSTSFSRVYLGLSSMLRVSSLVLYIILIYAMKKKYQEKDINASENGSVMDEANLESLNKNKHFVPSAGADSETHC

SMILES: C/C=C/C[C@@H](C)[C@@H](O)[C@H]1C(=O)N[C@@H](CC)C(=O)N(C)[C@H](C)C(=O)N(C)[C@@H]([C@H](C)CN2CC(OC)C2)C(=O)N[C@@H](C(C)C)C(=O)N(C)[C@@H](CC(C)C)C(=O)N[C@@H](C)C(=O)N[C@H](C)C(=O)N(C)[C@@H](CC(C)C)C(=O)N(C)[C@@H](CC(C)C)C(=O)N(C)[C@@H](C(C)C)C(=O)N1C [Compound 2.5.17, 3-[D-Ala]-4-[(2S,3R)-4-(3-methoxyazetidin-1-yl)-3-methyl-2-(methylamino)butanoyl]-cyclosporin] (cyclo(A[dA][NMeL][NMeL][NMeV][MeBmt][Abu][dNMeA][X23]V[NMeL]))
- CypF Kd (CypF): 0.001 µM
- IC50 [1]: 17.6 µM
- CypB Kd (cyclophilin B (CypB)): 0.9
- IC50 [2]: 0.044 µM
- Ki (CYP3A4): > 50 µM
- CypA Kd (cyclophilin A (CypA)): 1.9
- IC50 [3]: 4.2 µM

SMILES: C/C=C/C[C@@H](C)[C@@H](O)[C@H]1C(=O)N[C@@H](CC)C(=O)N(C)[C@H](C)C(=O)N(C)[C@@H]([C@@H](C)CN2CCN(CC)CC2)C(=O)N[C@@H](C(C)C)C(=O)N(C)[C@@H](CC(C)C)C(=O)N[C@@H](C)C(=O)N[C@H](C)C(=O)N(C)[C@@H](CC(C)C)C(=O)N(C)[C@@H](CC(C)C)C(=O)N(C)[C@@H](C(C)C)C(=O)N1C [Compound 2.17.2, 3-[D-Ala]-4[(2S,3S)-2-Amino-4-(4-ethyl-piperazin-1-yl)-3-methyl-butanoyl]-cyclosporin] (cyclo(A[dA][NMeL][NMeL][NMeV][MeBmt][Abu][dNMeA][X11]V[NMeL]))
- CypF Kd (CypF): 0.0005 µM
- IC50 [1]: 14.5 µM
- CypB Kd (cyclophilin B (CypB)): 0.5
- IC50 [2]: 0.035 µM
- Ki (CYP3A4): > 50 µM
- CypA Kd (cyclophilin A (CypA)): 0.6
- IC50 [3]: 5.1 µM

SMILES: C/C=C/C[C@@H](C)[C@@H](O)[C@H]1C(=O)N[C@@H](CC)C(=O)N(C)[C@H](C)C(=O)N(C)[C@@H]([C@H](C)CCN2CCN(CCOC)CC2)C(=O)N[C@@H](C(C)C)C(=O)N(C)[C@@H](CC(C)C)C(=O)N[C@@H](C)C(=O)N[C@H](C)C(=O)N(C)[C@@H](CC(C)C)C(=O)N(C)[C@@H](CC(C)C)C(=O)N(C)[C@@H](C(C)C)C(=O)N1C [Compound 2.18.3, 3-[D-Ala]-4-[(2S,3R)-5-(4-(2-methoxyethyl)piperazin-1-yl)-3-methyl-2-(methylamino)pentanoyl]-cyclosporin] (cyclo(A[dA][NMeL][NMeL][NMeV][MeBmt][Abu][dNMeA][X79]V[NMeL]))
- CypF Kd (CypF): 0.0005 µM
- IC50 [1]: 11.1 µM
- CypB Kd (cyclophilin B (CypB)): 0.6
- IC50 [2]: 0.073 µM
- Ki (CYP3A4): > 50 µM
- CypA Kd (cyclophilin A (CypA)): 0.9
- IC50 [3]: 9.1 µM

SMILES: C/C=C/C[C@@H](C)[C@@H](O)[C@H]1C(=O)N[C@@H](CC)C(=O)N(C)[C@H](C)C(=O)N(C)[C@@H]([C@H](C)CN2CCN(CC)CC2)C(=O)N[C@@H](C(C)C)C(=O)N(C)[C@@H](CC(C)C)C(=O)N[C@@H](C)C(=O)N[C@H](C)C(=O)N(C)[C@@H](CC(C)C)C(=O)N(C)[C@@H](CC(C)C)C(=O)N(C)[C@@H](C(C)C)C(=O)N1C [Compound 2.5.13, 3-[D-Ala]-4[(2S,3R)-2-Amino-4-(4-ethyl-piperazin-1-yl)-butanoyl]-cyclosporin] (cyclo(A[dA][NMeL][NMeL][NMeV][MeBmt][Abu][dNMeA][X21]V[NMeL]))
- CypF Kd (CypF): 0.0005 µM
- IC50 [1]: 5.3 µM
- CypB Kd (cyclophilin B (CypB)): 0.8
- IC50 [2]: 0.05 µM
- Ki (CYP3A4): > 50 µM
- CypA Kd (cyclophilin A (CypA)): 0.9
- IC50 [3]: 4.56 µM

SMILES: C/C=C/C[C@@H](C)[C@@H](O)[C@H]1C(=O)N[C@@H](CC)C(=O)N(C)[C@H](C)C(=O)N(C)[C@@H]([C@H](C)CN2CCN(C3CCC3)CC2)C(=O)N[C@@H](C(C)C)C(=O)N(C)[C@@H](CC(C)C)C(=O)N[C@@H](C)C(=O)N[C@H](C)C(=O)N(C)[C@@H](CC(C)C)C(=O)N(C)[C@@H](CC(C)C)C(=O)N(C)[C@@H](C(C)C)C(=O)N1C [Compound 2.5.14, 3-[D-Ala]-4[(2S,3R)-2-Amino-4-(4-cyclobutyl-piperazin-1-yl)-butanoyl]-cyclosporin] (cyclo(A[dA][NMeL][NMeL][NMeV][MeBmt][Abu][dNMeA][X22]V[NMeL]))
- CypF Kd (CypF): 0.0005 µM
- IC50 [1]: 8.1 µM
- CypB Kd (cyclophilin B (CypB)): 0.7
- IC50 [2]: 0.032 µM
- Ki (CYP3A4): > 50 µM
- CypA Kd (cyclophilin A (CypA)): 1.0
- IC50 [3]: 5.2 µM
